Non-standard residues stand in square brackets, D forms with d. *: point of attachment. Biotin = O=C1N[C@H]2[C@H](CS[C@H]2CCCCC(=O)*)N1; Cit = NC(=O)NCCC[C@H](N)C(=O)O
How the values were obtained:
IgA/G/M ACPAs = test system: IgA/G/M ACPAs
Protocol: (§1) This example describes an enzyme-linked immunosorbent assay (ELISA) for detecting (e.g., measuring) the presence (or absence) or level of anti-citrullinated protein antibodies (ACPAs) in an individual's sample. As a non-limiting example, a 96-well immunoassay plate was coated with avidin (e.g., neutravidin) and the plate was blocked with 5% bovine serum albumin in phosphate buffered saline. Biotinylated synthetic citrullinated peptides of the present invention were incubated with the avidin-coated plate. […] Unbound samples were washed out and RA-associated autoantibodies directed against the immobilized citrullinated peptide were detected with an enzyme-labeled (e.g., HRP-labeled) anti-human IgA, IgG, IgM, or IgA/G/M secondary antibody.

[1] = test system: anti-citrullinated protein antibodies (ACPAs); details: FIG. 3 and FIG. 7; compared with the other peptides tested
Protocol: as §1

IgG ACPAs = experiment: ACPA ELISA with anti-human IgG secondary antibody; assay type: binding; details: for IgG ACPA positive response (strong/moderate): Example 7, FIGS. 20-27
Protocol: The synthetic citrullnated peptides set forth in Example 6, which were designed from synovial proteins, were synthesized and evaluated for their ability to diagnose and/or prognose RA. […] The peptides were then tested for IgG ACPA dose-response in samples of synovial fluid taken from both healthy patients and patients with RA.

IgM ACPAs = test system: IgM ACPAs
Protocol: as §1

IgA ACPAs = test system: IgA ACPAs
Protocol: as §1

Biotin-GGGATRSSAVRL[Cit]SSVPGVRLLQDS-NH2 [VMT3]
sensitivity for autoantibodies of the IgA/G/M classes (in words) (IgA/G/M ACPAs): particularly high sensitivity
dose-response curve in ACPA ELISA (in words) [1]: strong dose-response curves
sensitivity for autoantibodies of the IgG class (in words) (IgG ACPAs): particularly high sensitivity

Biotin-GGGATRSSAV[Cit]LRSSVPGVRLLQDS-NH2 [VMT2]
dose-response curve in ACPA ELISA (in words) [1]: strong dose-response curves
sensitivity for autoantibodies of the IgM class (in words) (IgM ACPAs): particularly high sensitivity
sensitivity for autoantibodies of the IgA class (in words) (IgA ACPAs): particularly high sensitivity
IgG ACPA positive response (strong/moderate) (IgG ACPAs): moderate

Biotin-GGGAT[Cit]SSAV[Cit]L[Cit]SSVPGV[Cit]LLQDS-NH2 [VMT5]
dose-response curve in ACPA ELISA (in words) [1]: weak dose-response curve

Biotin-HSTK[Cit]GHAKSRPV[Cit]G-NH2 [FB4]
dose-response curve in ACPA ELISA (in words) [1]: stronger dose-response curve

Biotin-[Cit]PAPPPISGGGY[Cit]A[Cit]-NH2 [FB3]
dose-response curve in ACPA ELISA (in words) [1]: stronger dose-response curve

T2α1-3: synthetic citrullinated peptide derived from collagen (Coll.T2α1), Table 8 (Biotin-KWGKTVIEY[Cit]SQKTSRLYRSQKTS[Cit]LG-NH2; SMILES CC[C@H](C)[C@H](NC(=O)[C@@H](NC(=O)[C@@H](NC(=O)[C@H](CCCCN)NC(=O)CNC(=O)[C@H](Cc1c[nH]c2ccccc12)NC(=O)[C@H](CCCCN)NC(=O)CCCC[C@@H]1SC[C@@H]2NC(=O)N[C@@H]21)[C@@H](C)O)C(C)C)C(=O)N[C@@H](CCC(=O)O)C(=O)N[C@@H](Cc1ccc(O)cc1)C(=O)N[C@@H](CCCNC(N)=O)C(=O)N[C@@H](CO)C(=O)N[C@@H](CCC(N)=O)C(=O)N[C@@H](CCCCN)C(=O)N[C@H](C(=O)N[C@@H](CO)C(=O)N[C@@H](CCCNC(=N)N)C(=O)N[C@@H](CC(C)C)C(=O)N[C@@H](Cc1ccc(O)cc1)C(=O)N[C@@H](CCCNC(=N)N)C(=O)N[C@@H](CO)C(=O)N[C@@H](CCC(N)=O)C(=O)N[C@@H](CCCCN)C(=O)N[C@H](C(=O)N[C@@H](CO)C(=O)N[C@@H](CCCNC(N)=O)C(=O)N[C@@H](CC(C)C)C(=O)NCC(N)=O)[C@@H](C)O)[C@@H](C)O)
IgG ACPA positive response (strong/moderate) (IgG ACPAs): moderate

T9α1-1: synthetic citrullinated peptide derived from collagen (Coll.T9α1), Table 8 (Biotin-KRRP[Cit]FPVNSFQVDKAAS[Cit]AIQRVVGSRAIQ[Cit]VVGSA-NH2; SMILES CC[C@H](C)[C@H](NC(=O)[C@H](C)NC(=O)[C@H](CCCNC(=N)N)NC(=O)[C@H](CO)NC(=O)CNC(=O)[C@@H](NC(=O)[C@@H](NC(=O)[C@H](CCCNC(=N)N)NC(=O)[C@H](CCC(N)=O)NC(=O)[C@@H](NC(=O)[C@H](C)NC(=O)[C@H](CCCNC(N)=O)NC(=O)[C@H](CO)NC(=O)[C@H](C)NC(=O)[C@H](C)NC(=O)[C@H](CCCCN)NC(=O)[C@H](CC(=O)O)NC(=O)[C@@H](NC(=O)[C@H](CCC(N)=O)NC(=O)[C@H](Cc1ccccc1)NC(=O)[C@H](CO)NC(=O)[C@H](CC(N)=O)NC(=O)[C@@H](NC(=O)[C@@H]1CCCN1C(=O)[C@H](Cc1ccccc1)NC(=O)[C@H](CCCNC(N)=O)NC(=O)[C@@H]1CCCN1C(=O)[C@H](CCCNC(=N)N)NC(=O)[C@H](CCCNC(=N)N)NC(=O)[C@H](CCCCN)NC(=O)CCCC[C@@H]1SC[C@@H]2NC(=O)N[C@@H]21)C(C)C)C(C)C)[C@@H](C)CC)C(C)C)C(C)C)C(=O)N[C@@H](CCC(N)=O)C(=O)N[C@@H](CCCNC(N)=O)C(=O)N[C@H](C(=O)N[C@H](C(=O)NCC(=O)N[C@@H](CO)C(=O)N[C@@H](C)C(N)=O)C(C)C)C(C)C)
IgG ACPA positive response (strong/moderate) (IgG ACPAs): moderate

T9α1-4: synthetic citrullinated peptide derived from collagen (Coll.T9α1), Table 8 (Biotin-QHIKQVSM[Cit]VIQEHFAEMAASLK[Cit]G-NH2; SMILES CC[C@H](C)[C@H](NC(=O)[C@H](Cc1c[nH]cn1)NC(=O)[C@H](CCC(N)=O)NC(=O)CCCC[C@@H]1SC[C@@H]2NC(=O)N[C@@H]21)C(=O)N[C@@H](CCCCN)C(=O)N[C@@H](CCC(N)=O)C(=O)N[C@H](C(=O)N[C@@H](CO)C(=O)N[C@@H](CCSC)C(=O)N[C@@H](CCCNC(N)=O)C(=O)N[C@H](C(=O)N[C@H](C(=O)N[C@@H](CCC(N)=O)C(=O)N[C@@H](CCC(=O)O)C(=O)N[C@@H](Cc1c[nH]cn1)C(=O)N[C@@H](Cc1ccccc1)C(=O)N[C@@H](C)C(=O)N[C@@H](CCC(=O)O)C(=O)N[C@@H](CCSC)C(=O)N[C@@H](C)C(=O)N[C@@H](C)C(=O)N[C@@H](CO)C(=O)N[C@@H](CC(C)C)C(=O)N[C@@H](CCCCN)C(=O)N[C@@H](CCCNC(N)=O)C(=O)NCC(N)=O)[C@@H](C)CC)C(C)C)C(C)C)
IgG ACPA positive response (strong/moderate) (IgG ACPAs): strong

T10α1-1: synthetic citrullinated peptide derived from collagen (Coll.T10α1), Table 8 (Biotin-KAGQ[Cit]PSLSGDKILYN[Cit]QQ[Cit]TGIFTSQIR-NH2; SMILES CC[C@H](C)[C@H](NC(=O)CNC(=O)[C@@H](NC(=O)[C@H](CCCNC(N)=O)NC(=O)[C@H](CCC(N)=O)NC(=O)[C@H](CCC(N)=O)NC(=O)[C@H](CCCNC(N)=O)NC(=O)[C@H](CC(N)=O)NC(=O)[C@H](Cc1ccc(O)cc1)NC(=O)[C@H](CC(C)C)NC(=O)[C@@H](NC(=O)[C@H](CCCCN)NC(=O)[C@H](CC(=O)O)NC(=O)CNC(=O)[C@H](CO)NC(=O)[C@H](CC(C)C)NC(=O)[C@H](CO)NC(=O)[C@@H]1CCCN1C(=O)[C@H](CCCNC(N)=O)NC(=O)[C@H](CCC(N)=O)NC(=O)CNC(=O)[C@H](C)NC(=O)[C@H](CCCCN)NC(=O)CCCC[C@@H]1SC[C@@H]2NC(=O)N[C@@H]21)[C@@H](C)CC)[C@@H](C)O)C(=O)N[C@@H](Cc1ccccc1)C(=O)N[C@H](C(=O)N[C@@H](CO)C(=O)N[C@@H](CCC(N)=O)C(=O)N[C@H](C(=O)N[C@@H](CCCNC(=N)N)C(N)=O)[C@@H](C)CC)[C@@H](C)O)
IgG ACPA positive response (strong/moderate) (IgG ACPAs): moderate

T11α2-1: synthetic citrullinated peptide derived from collagen (Coll.T11α2), Table 8 (Biotin-GISPADVAY[Cit]VARPAQLYRVA[Cit]PAQLSAPT[Cit]QR-NH2; SMILES CC[C@H](C)[C@H](NC(=O)CNC(=O)CCCC[C@@H]1SC[C@@H]2NC(=O)N[C@@H]21)C(=O)N[C@@H](CO)C(=O)N1CCC[C@H]1C(=O)N[C@@H](C)C(=O)N[C@@H](CC(=O)O)C(=O)N[C@H](C(=O)N[C@@H](C)C(=O)N[C@@H](Cc1ccc(O)cc1)C(=O)N[C@@H](CCCNC(N)=O)C(=O)N[C@H](C(=O)N[C@@H](C)C(=O)N[C@@H](CCCNC(=N)N)C(=O)N1CCC[C@H]1C(=O)N[C@@H](C)C(=O)N[C@@H](CCC(N)=O)C(=O)N[C@@H](CC(C)C)C(=O)N[C@@H](Cc1ccc(O)cc1)C(=O)N[C@@H](CCCNC(=N)N)C(=O)N[C@H](C(=O)N[C@@H](C)C(=O)N[C@@H](CCCNC(N)=O)C(=O)N1CCC[C@H]1C(=O)N[C@@H](C)C(=O)N[C@@H](CCC(N)=O)C(=O)N[C@@H](CC(C)C)C(=O)N[C@@H](CO)C(=O)N[C@@H](C)C(=O)N1CCC[C@H]1C(=O)N[C@H](C(=O)N[C@@H](CCCNC(N)=O)C(=O)N[C@@H](CCC(N)=O)C(=O)N[C@@H](CCCNC(=N)N)C(N)=O)[C@@H](C)O)C(C)C)C(C)C)C(C)C)
IgG ACPA positive response (strong/moderate) (IgG ACPAs): strong

T11α2-4: synthetic citrullinated peptide derived from collagen (Coll.T11α2), Table 8 (Biotin-GH[Cit]AQRSPQQQPS[Cit]LHRPQNQE-NH2; SMILES CC(C)C[C@H](NC(=O)[C@H](CCCNC(N)=O)NC(=O)[C@H](CO)NC(=O)[C@@H]1CCCN1C(=O)[C@H](CCC(N)=O)NC(=O)[C@H](CCC(N)=O)NC(=O)[C@H](CCC(N)=O)NC(=O)[C@@H]1CCCN1C(=O)[C@H](CO)NC(=O)[C@H](CCCNC(=N)N)NC(=O)[C@H](CCC(N)=O)NC(=O)[C@H](C)NC(=O)[C@H](CCCNC(N)=O)NC(=O)[C@H](Cc1c[nH]cn1)NC(=O)CNC(=O)CCCC[C@@H]1SC[C@@H]2NC(=O)N[C@@H]21)C(=O)N[C@@H](Cc1c[nH]cn1)C(=O)N[C@@H](CCCNC(=N)N)C(=O)N1CCC[C@H]1C(=O)N[C@@H](CCC(N)=O)C(=O)N[C@@H](CC(N)=O)C(=O)N[C@@H](CCC(N)=O)C(=O)N[C@@H](CCC(=O)O)C(N)=O)
IgG ACPA positive response (strong/moderate) (IgG ACPAs): moderate

Reference: US8519096B2, “Citrullinated peptides for diagnosing and prognosing rheumatoid arthritis” (Nestec S.A., priority 2009, dated 2013)
